Assay results as given in article PMC8429249 (Journal of medicinal chemistry, 2021).
Read-outs that look alike come from different tables or passages of the source.

Key:
[1] = system: H358 cells; test: MTT cell viability assay; assay type: cell-based, human; details: read-out: MTT EC50, 96 h, 10% FBS, mean ± SD
[2] = target: RLuc8-KRasG12D / GFP-CRAF RBD interaction in HEK293T cells (Homo sapiens, UniProt P01116, G12D); test: Intracellular Ras-Raf BRET2 assay; assay type: cell-based; details: 0–15 μM, 20 h
[3] = system: H358 cells; details: read-out: CellTiter-Glo EC50, 96 h, 10% FBS, mean ± SD
[4] = target: RLuc8-KRasG12V / GFP-CRAF RBD interaction in HEK293T cells (Homo sapiens, UniProt P01116, G12V); test: Intracellular Ras-Raf BRET2 assay; assay type: cell-based; details: 0–15 μM, 20 h

ΦOSQΦΠ-K-fArR-J-BBK-NH2 [Peptide B3-4]
EC50 [1]: 29 ± 6 µM | effect on BRET signal (KRasG12D-CRAF RBD) [2]: did not decrease the BRET signal | EC50 [3]: 22 ± 4 µM | effect on BRET signal (KRasG12V-CRAF RBD) [4]: did not decrease the BRET signal
